From the NIST ThermoML archive (doi:10.1016/j.tca.2015.03.027)
± gives the expanded uncertainty stated by the source.

How the values were obtained:
[1] = molar heat capacity at constant pressure; wn = mass fraction of the nth substance listed; settings: 320 K; 96 kPa; Liquid; Small sample (50 mg) DSC; w1 = 0.649
[2] = Crystal; DTA
[3] = Molar enthalpy of transition or fusion; settings: Crystal; DSC
[4] = molar heat capacity at constant pressure; settings: 290 K; 101.33 kPa; Crystal; Small sample (50 mg) DSC

| molar heat capacity at constant pressure [1] [J/K/mol] | Normal melting temperature [2] [°C] | Molar enthalpy of transition or fusion [3] [kJ/mol] | molar heat capacity at constant pressure [4] [J/K/mol] | SMILES |
| --- | --- | --- | --- | --- |
| 75.67 ± 7.5 | – | – | – | [Br-].[Br-].[Ca+2] [calcium bromide] + O |
| – | 34.00 ± 2 | 43.8 ± 1.4 | 363.41 ± 37 | O.O.O.O.O.O.[Br-].[Br-].[Ca+2] [calcium bromide hexahydrate] |
